Experimental findings from patent US6060485A, “Arylacetic amide derivative or salt thereof, and pharmaceutical comprising it” (SSP Co., Ltd., priority 1997, dated 2000) are described below.

The subject of test [1] is acetylcholine-induced bladder contraction. Put plainly: Action against acetylcholine-induced bladder contraction (intraduodenal). The note with it: Rattus norvegicus, 2 h, read-out: Bladder contraction inhibitory action ID50. The format is in vivo, SD male rats. On the procedure: Action against acetylcholine-induced bladder contraction Testing method
SD male rats weighing 230 to 390 g were each fixed on its back under intraperitoneal anesthesia with 500 mg/kg of urethane and 50 mg/kg of α-chloralose. Then, its bladder was exposed by midline abdominal incision. Into the top part of the bladder, a polyethylene tube filled with physiological saline was inserted and intracystic pressure was measured. Into the femoral vein, a venous cannula for administration of a drug was inserted, through which 10 μg/kg of acetylcholine were administered to induce bladder contraction. Then, acetylcholine was administered at intervals of 10 minutes. After the bladder contraction by acetylcholine became stable, the stomach was subjected to midline incision and the test compound was intraduodenally administered using an injection needle.
The bladder contraction was measured as a difference of intracystic pressure before and after the administration of acetylcholine.

Test [2] deals with carbachol-induced hypersialosis. The test can be described thus: Action against carbachol-induced hypersialosis (salivation, oral). The format is in vivo, SD male rats. The note with it: for ED50: Rattus norvegicus, read-out: Salivation inhibitory action ID50; for Selectivity: bladder over salivation, propiverine hydrochloride = 1.0; for Salivation inhibitory action / Bladder contraction inhibitory action: ratio of ID50 values. On the procedure:
Action against carbachol-induced hypersialosis Testing method
A test compound was orally administered to each of SD male rats weighing 100 to 150 g. Thirty minutes later, 0.1 mg/kg of carbachol was intraperitoneally administered. Immediately after the administration of carbachol, the rat was fixed by hands under non-anesthesia and under this condition, the saliva was wiped off with a cotton ball for 10 minutes. The weight of the saliva so obtained was measured.

[3] abbreviates: SD male rats, intraduodenal, acetylcholine 10 μg/kg i.v., intracystic pressure, observed 120 minutes.
The mark [4] stands for this setting: SD male rats, oral, 30 minutes before carbachol 0.1 mg/kg i.p., saliva weight over 10 minutes.

Molecules are shown by their SMILES. Structures can show the parent of a compound that is named as a salt. Where two headings read alike, the source gives them in different places.

As to `CCCCOC(C(=O)NC1CCN(Cc2ccccc2)CC1)(c1ccccc1)C(C)C` (centres unmarked) [Compound No. 4, N-(1-benzyl-4-piperidinyl)-2-butoxy-3-methyl-2-phenylbutanamide], in test [1] (setting [3]), the ED50 worked out at 9.8 mg/kg. For the same compound, the ED50 in test [2] (setting [4]) is 56.6 mg/kg. In addition, in test [2], the Selectivity stood at 6.2 and the “Salivation inhibitory action / Bladder contraction inhibitory action” value was 5.8.

For `CCN(CC)CC#CCOC(=O)C(O)(c1ccccc1)C1CCCCC1` (centres unmarked) [Oxybutynin hydrochloride, reference compound], the ED50 in test [1] worked out at 3.4 mg/kg. For the same compound, in test [2] (po), the ED50 is 3.5 mg/kg. In test [2], the Selectivity was 1.1 and the “Salivation inhibitory action / Bladder contraction inhibitory action” value was found to be 1.0.

As to `CCCOC(C(=O)OC1CCN(C)CC1)(c1ccccc1)c1ccccc1` [Propiverine hydrochloride, reference compound], the ED50 in test [1] (setting [3]) turned out to be 9.9 mg/kg; in test [2] (setting [4]), 9.2 mg/kg. The Selectivity in test [2] is on record as 1.0. The “Salivation inhibitory action / Bladder contraction inhibitory action” value in test [2] turned out to be 0.9.

Take `CCCOC(C(=O)NC1CCN(Cc2ccccc2)CC1)(c1ccccc1)C(C)C` (centres unmarked) [compound 3]: the ED50 in test [1] (setting [3]) was determined as 9.4 mg/kg; in test [2] (setting [4]) it was 33.9 mg/kg. For the same compound, the Selectivity in test [2] was determined as 4.0. Moreover, in test [2], the “Salivation inhibitory action / Bladder contraction inhibitory action” value was 3.6.

As for `CCCOC(C(=O)NC1CCN(Cc2ccccc2)CC1)(c1ccccc1)C1CC1` (centres unmarked) [compound 12], the ED50 in test [1] (setting [3]) amounted to 10 mg/kg. The ED50 in test [2] (setting [4]) was found to be 22.5 mg/kg. Moreover, in test [2], the Selectivity is reported as 2.4 and the “Salivation inhibitory action / Bladder contraction inhibitory action” value is 2.3.
